Results published in patent US9663496B2, “AMPK-activating heterocyclic compounds and methods for using the same” (Rigel Pharmaceuticals, Inc., priority 2010, dated 2017).

Each compound was assayed against AMPK (assay: AMPK activation, enzyme-linked immunosorbent assay). Details: EC50 for AMPK activation, ELISA.
Assay type: biochemical
Outline: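 Test compounds were added, and kinase activation was then detected by immunoassay following established kit procedures.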

Row | SMILES | EC50 [nM]
1 | N#Cc1ccc(CN2CCC(NC(=O)c3ccc(C(=O)N4CCC(Oc5ccc(S(=O)(=O)C6CC6)cc5)CC4)nc3)CC2)cc1 [Compound 246, N-(1-(4-cyanobenzyl)piperidin-4-yl)-6-(4-(4-(cyclopropylsulfonyl)phenoxy)piperidine-1-carbonyl)nicotinamide] | < 500
2 | O=C(Nc1ccc(Oc2ccc(F)cc2)nc1)c1ccc(C(=O)N2CCC(Oc3ccc(S(=O)(=O)C4CC4)cc3)CC2)nc1 [Compound 247, 6-(4-(4-(cyclopropylsulfonyl)phenoxy)piperidine-1-carbonyl)-N-(6-(4-fluorophenoxy)pyridin-3-yl)nicotinamide] | < 500
3 | O=C(NC1CCN(Cc2ccc(N3CCCC3)cc2)CC1)c1ccc(C(=O)N2CCC(Oc3ccc(S(=O)(=O)C4CC4)cc3)CC2)nc1 [Compound 248, 6-(4-(4-(cyclopropylsulfonyl)phenoxy)piperidine-1-carbonyl)-N-(1-(4-(pyrrolidin-1-yl)benzyl)piperidin-4-yl)nicotinamide] | < 500
4 | O=C(NC1CCN(Cc2ccc(OC(F)(F)F)cc2)CC1)c1ccc(C(=O)N2CCC(Oc3ccc(S(=O)(=O)C4CC4)cc3)CC2)nc1 [Compound 249, 6-(4-(4-(cyclopropylsulfonyl)phenoxy)piperidine-1-carbonyl)-N-(1-(4-(trifluoromethoxy)benzyl)piperidin-4-yl)nicotinamide] | < 500
5 | CS(=O)(=O)c1ccc(N2CCN(C(=O)c3ccc(C(=O)NC4CCN(Cc5ccc(C#N)cc5)CC4)nc3)CC2)cc1 [Compound 250, N-(1-(4-cyanobenzyl)piperidin-4-yl)-5-(4-(4-(methylsulfonyl)phenyl)piperazine-1-carbonyl)picolinamide] | < 500

The next lines start with the values.

Row | EC50 [nM] | SMILES
6 | < 500 | CC(C)S(=O)(=O)c1ccc(N2CCN(C(=O)c3ccc(C(=O)NC4CCN(Cc5ccc(C#N)cc5)CC4)nc3)CC2)cc1 [Compound 251, N-(1-(4-cyanobenzyl)piperidin-4-yl)-5-(4-(4-(isopropylsulfonyl)phenyl)piperazine-1-carbonyl)picolinamide]
7 | < 500 | N#Cc1ccc(CN2CCC(NC(=O)c3ccc(C(=O)N4CCN(c5ccc(S(=O)(=O)C6CC6)cc5)CC4)cn3)CC2)cc1 [Compound 256, N-(1-(4-cyanobenzyl)piperidin-4-yl)-5-(4-(4-(cyclopropylsulfonyl)phenyl)piperazine-1-carbonyl)picolinamide]
8 | < 500 | N#Cc1ccc(CN2CCC(NC(=O)c3ccc(C(=O)N4CCN(c5ccc(S(=O)(=O)C(F)(F)F)cc5)CC4)cn3)CC2)cc1 [Compound 257, N-(1-(4-cyanobenzyl)piperidin-4-yl)-5-(4-(4-(trifluoromethylsulfonyl)phenyl)piperazine-1-carbonyl)picolinamide]
9 | < 500 | N#Cc1ccc(CN2CCC(NC(=O)c3ccc(C(=O)N4CCN(c5ccc(C(=O)C6CC6)cc5)CC4)cn3)CC2)cc1 [Compound 258, N-(1-(4-cyanobenzyl)piperidin-4-yl)-5-(4-(4-(cyclopropanecarbonyl)phenyl)piperazine-1-carbonyl)picolinamide]
10 | < 500 | CC(=O)c1ccc(Oc2ccc(NC(=O)c3ccc(C(=O)N4CCC(Oc5ccc(S(C)(=O)=O)cc5)CC4)cn3)cn2)cc1 [Compound 259, N-(6-(4-acetylphenoxy)pyridin-3-yl)-5-(4-(4-(methylsulfonyl)phenoxy)piperidine-1-carbonyl)picolinamide]
11 | < 500 | CCS(=O)(=O)c1ccc(C(=O)C2CCN(C(=O)c3ccc(C(=O)NC4CCN(Cc5ccc(C#N)cc5)CC4)nc3)CC2)cc1 [Compound 260, N-(1-(4-cyanobenzyl)piperidin-4-yl)-5-(4-(4-(ethylsulfonyl)benzoyl)piperidine-1-carbonyl)picolinamide]
12 | < 500 | CS(=O)(=O)c1ccc(OC2CCN(C(=O)c3ccc(C(=O)Nc4ccc(S(=O)(=O)c5ccc(F)cc5)nc4)nc3)CC2)cc1 [Compound 261, N-(6-(4-fluorophenylsulfonyl)pyridin-3-yl)-5-(4-(4-(methylsulfonyl)phenoxy)piperidine-1-carbonyl)picolinamide]
